{"source": "PubChem BioAssay AID1259407", "about": "(Chemical Carcinogenesis Research Information System (CCRIS), 2018)", "test_system": "CCRIS mutagenicity, Ames/micronucleus/aberration tests", "experiment": "CCRIS mutagenicity studies", "key": {"[1]": {"details": "Test System: AMES SALMONELLA TYPHIMURIUM, Strain/Indicator: TA100, Metabolic Activation: NONE, Method: STANDARD PLATE"}, "[2]": {"details": "Test System: AMES SALMONELLA TYPHIMURIUM, Strain/Indicator: TA100, Metabolic Activation: RAT, LIVER, S-9, AROCLOR 1254, Method: STANDARD PLATE"}, "[3]": {"details": "Test System: AMES SALMONELLA TYPHIMURIUM, Strain/Indicator: TA1535, Metabolic Activation: NONE, Method: STANDARD PLATE"}, "[4]": {"details": "Test System: AMES SALMONELLA TYPHIMURIUM, Strain/Indicator: TA100, Metabolic Activation: RAT, LIVER, S-9, AROCLOR 1254, Method: PREINCUBATION"}, "[5]": {"details": "Test System: AMES SALMONELLA TYPHIMURIUM, Strain/Indicator: TA98, Metabolic Activation: NONE, Method: STANDARD PLATE"}, "[6]": {"details": "Test System: AMES SALMONELLA TYPHIMURIUM, Strain/Indicator: TA98, Metabolic Activation: RAT, LIVER, S-9, AROCLOR 1254, Method: STANDARD PLATE"}, "[7]": {"details": "Test System: AMES SALMONELLA TYPHIMURIUM, Strain/Indicator: TA1535, Metabolic Activation: RAT, LIVER, S-9, AROCLOR 1254, Method: STANDARD PLATE"}, "[8]": {"details": "Test System: AMES SALMONELLA TYPHIMURIUM, Strain/Indicator: TA1537, Metabolic Activation: NONE, Method: STANDARD PLATE"}, "[9]": {"details": "Test System: AMES SALMONELLA TYPHIMURIUM, Strain/Indicator: TA1537, Metabolic Activation: RAT, LIVER, S-9, AROCLOR 1254, Method: STANDARD PLATE"}, "[10]": {"details": "Test System: AMES SALMONELLA TYPHIMURIUM, Strain/Indicator: TA98, Metabolic Activation: HAMSTER, LIVER, S-9, AROCLOR 1254 (10%), Method: PREINCUBATION"}, "[11]": {"details": "Test System: AMES SALMONELLA TYPHIMURIUM, Strain/Indicator: TA98, Metabolic Activation: NONE, Method: PREINCUBATION"}, "[12]": {"details": "Test System: AMES SALMONELLA TYPHIMURIUM, Strain/Indicator: TA98, Metabolic Activation: RAT, LIVER, S-9, AROCLOR 1254 (10%), Method: PREINCUBATION"}, "[13]": {"details": "Test System: AMES SALMONELLA TYPHIMURIUM, Strain/Indicator: TA100, Metabolic Activation: HAMSTER, LIVER, S-9, AROCLOR 1254 (10%), Method: PREINCUBATION"}, "[14]": {"details": "Test System: AMES SALMONELLA TYPHIMURIUM, Strain/Indicator: TA100, Metabolic Activation: NONE, Method: PREINCUBATION"}, "[15]": {"details": "Test System: AMES SALMONELLA TYPHIMURIUM, Strain/Indicator: TA100, Metabolic Activation: RAT, LIVER, S-9, AROCLOR 1254 (10%), Method: PREINCUBATION"}, "[16]": {"details": "Test System: AMES SALMONELLA TYPHIMURIUM, Strain/Indicator: TA1535, Metabolic Activation: HAMSTER, LIVER, S-9, AROCLOR 1254 (10%), Method: PREINCUBATION"}, "[17]": {"details": "Test System: AMES SALMONELLA TYPHIMURIUM, Strain/Indicator: TA1535, Metabolic Activation: NONE, Method: PREINCUBATION"}, "[18]": {"details": "Test System: AMES SALMONELLA TYPHIMURIUM, Strain/Indicator: TA1535, Metabolic Activation: RAT, LIVER, S-9, AROCLOR 1254 (10%), Method: PREINCUBATION"}, "[19]": {"details": "Test System: AMES SALMONELLA TYPHIMURIUM, Strain/Indicator: TA1537, Metabolic Activation: HAMSTER, LIVER, S-9, AROCLOR 1254 (10%), Method: PREINCUBATION"}, "[20]": {"details": "Test System: AMES SALMONELLA TYPHIMURIUM, Strain/Indicator: TA1537, Metabolic Activation: NONE, Method: PREINCUBATION"}, "[21]": {"details": "Test System: AMES SALMONELLA TYPHIMURIUM, Strain/Indicator: TA1537, Metabolic Activation: RAT, LIVER, S-9, AROCLOR 1254 (10%), Method: PREINCUBATION"}}, "note": "The source made the active and inactive calls. The rule behind the calls is not given here."}
{"smiles": "ClCCN(CCCl)c1ccc2ccccc2c1", "values": [{"measurement": "mutagenic call", "setting": "[1]", "value": "active; positive"}, {"measurement": "mutagenic call", "setting": "[2]", "value": "active; positive"}, {"measurement": "mutagenic call", "setting": "Test System: AMES SALMONELLA TYPHIMURIUM, Strain/Indicator: TA100, Metabolic Activation: RAT, LIVER, S-9, AROCLOR (10%), Method: STANDARD PLATE", "value": "active; positive"}, {"measurement": "mutagenic call", "setting": "Test System: AMES SALMONELLA TYPHIMURIUM, Strain/Indicator: TA100, Metabolic Activation: RAT, LIVER, S-9, AROCLOR (WITHOUT ADDED COFACTORS), Method: STANDARD PLATE", "value": "active; positive"}, {"measurement": "mutagenic call", "setting": "[3]", "value": "active; positive"}, {"measurement": "mutagenic call", "setting": "Test System: AMES SALMONELLA TYPHIMURIUM, Strain/Indicator: TA1535, Metabolic Activation: RAT, LIVER, S-9, AROCLOR (10%), Method: STANDARD PLATE", "value": "active; positive"}]}
{"smiles": "Oc1cc2cc3c(ccc4ccccc43)cc2c2ccccc12", "values": [{"measurement": "mutagenic call", "setting": "Test System: CHINESE HAMSTER V-79, Strain/Indicator: V-79/8-AZAGUANINE, Metabolic Activation: NONE, Method: STANDARD PLATE", "value": "active; positive"}]}
{"smiles": "C1=Cc2cc3cc4ccccc4cc3c3cccc1c23", "values": [{"measurement": "mutagenic call", "setting": "Test System: CHINESE HAMSTER OVARY, Strain/Indicator: V-79/6-THIOGUANINE, Metabolic Activation: RAT, LIVER, S-9, AROCLOR 1254, Method: FLASK ASSAY", "value": "active; positive"}, {"measurement": "mutagenic call", "setting": "Test System: CHINESE HAMSTER OVARY, Strain/Indicator: V-79/6-THIOGUANINE, Metabolic Activation: SHE CELL MEDIATED, Method: FLASK ASSAY", "value": "inactive; negative"}, {"measurement": "mutagenic call", "setting": "Test System: CHINESE HAMSTER V-79, Strain/Indicator: V-79/6-THIOGUANINE, Metabolic Activation: RAT, LIVER, S-9, AROCLOR 1254, Method: SUSPENSION/PLATE", "value": "active; positive"}]}
{"smiles": "CN(C)c1nc2c3cccnc3ccc2n1C", "values": [{"measurement": "mutagenic call", "setting": "Test System: AMES SALMONELLA TYPHIMURIUM, Strain/Indicator: TA98, Metabolic Activation: RAT, LIVER, S-9, AROCLOR 1254, Method: PREINCUBATION", "value": "active; positive"}, {"measurement": "mutagenic call", "setting": "[4]", "value": "active; positive"}]}
{"smiles": "O=c1c(Cl)c(Cl)cnn1S(=O)(=O)c1ccccc1", "values": [{"measurement": "mutagenic call", "setting": "[5]", "value": "inactive; negative"}, {"measurement": "mutagenic call", "setting": "[6]", "value": "inactive; negative"}, {"measurement": "mutagenic call", "setting": "[1]", "value": "inactive; negative"}, {"measurement": "mutagenic call", "setting": "[2]", "value": "inactive; negative"}, {"measurement": "mutagenic call", "setting": "[3]", "value": "inactive; negative"}, {"measurement": "mutagenic call", "setting": "[7]", "value": "inactive; negative"}, {"measurement": "mutagenic call", "setting": "[8]", "value": "inactive; negative"}, {"measurement": "mutagenic call", "setting": "[9]", "value": "inactive; negative"}]}
{"smiles": "COc1ccc(CN(CCN(C)C)c2ncccn2)cc1", "values": [{"measurement": "mutagenic call", "setting": "[10]", "value": "inactive; negative"}, {"measurement": "mutagenic call", "setting": "[11]", "value": "inactive; negative"}, {"measurement": "mutagenic call", "setting": "[12]", "value": "inactive; negative"}, {"measurement": "mutagenic call", "setting": "[13]", "value": "inactive; negative"}, {"measurement": "mutagenic call", "setting": "[14]", "value": "inactive; negative"}, {"measurement": "mutagenic call", "setting": "[15]", "value": "inactive; negative"}, {"measurement": "mutagenic call", "setting": "[16]", "value": "inactive; negative"}, {"measurement": "mutagenic call", "setting": "[17]", "value": "inactive; negative"}, {"measurement": "mutagenic call", "setting": "[18]", "value": "inactive; negative"}, {"measurement": "mutagenic call", "setting": "[19]", "value": "inactive; negative"}, {"measurement": "mutagenic call", "setting": "[20]", "value": "inactive; negative"}, {"measurement": "mutagenic call", "setting": "[21]", "value": "inactive; negative"}]}
{"smiles": "NC(=O)CC[C@H](N)C(=O)O", "values": [{"measurement": "mutagenic call", "setting": "End Point: In vitro chromosomal aberrations, Test System: Chinese hamster ovary (CHO) cells, Metabolic Activation: None", "value": "inactive; negative; glutamine, alone or in combination with vitamin c, reduced effect of d"}, {"measurement": "mutagenic call", "setting": "End Point: In vivo chromosomal aberrations, Test System: Bone marrow cells, Species: Rat, Strain/Sex: Wistar/Male and female, Route: Oral", "value": "inactive; negative; glutamine, alone or with vitamin c, reduced effect of doxorubicin"}, {"measurement": "mutagenic call", "setting": "End Point: In vivo micronucleus, Test System: Peripheral blood cells, Species: Mouse, Strain/Sex: Swiss/Male, Route: Oral", "value": "inactive; negative"}]}
{"smiles": "CC(C)(C)OC(=O)O/N=C(/C#N)c1ccccc1", "values": [{"measurement": "mutagenic call", "setting": "[5]", "value": "inactive; negative"}, {"measurement": "mutagenic call", "setting": "[6]", "value": "inactive; negative"}, {"measurement": "mutagenic call", "setting": "[1]", "value": "inactive; negative"}, {"measurement": "mutagenic call", "setting": "[2]", "value": "inactive; negative"}, {"measurement": "mutagenic call", "setting": "[3]", "value": "inactive; negative"}, {"measurement": "mutagenic call", "setting": "[7]", "value": "inactive; negative"}, {"measurement": "mutagenic call", "setting": "[8]", "value": "inactive; negative"}, {"measurement": "mutagenic call", "setting": "[9]", "value": "inactive; negative"}]}
{"smiles": "[Cl-].[Cl-].[Cl-].[Cr+3].c1cnc2c(c1)ccc1cccnc12.c1cnc2c(c1)ccc1cccnc12", "values": [{"measurement": "mutagenic call", "setting": "[1]", "value": "active; positive"}]}
{"smiles": "FC(F)(F)C(Cl)Br", "note": "(configuration not stated)", "values": [{"measurement": "mutagenic call", "setting": "End Point: IN VITRO CHROMOSOMAL ABERRATIONS, Test System: CHINESE HAMSTER OVARY CELLS, Metabolic Activation: NONE", "value": "inactive; negative"}, {"measurement": "mutagenic call", "setting": "End Point: IN VITRO CHROMOSOMAL ABERRATIONS, Test System: CHINESE HAMSTER OVARY CELLS, Metabolic Activation: RAT, LIVER, S-9, AROCLOR 1254", "value": "inactive; negative"}, {"measurement": "mutagenic call", "setting": "[10]", "value": "inactive; negative"}, {"measurement": "mutagenic call", "setting": "[11]", "value": "inactive; negative"}, {"measurement": "mutagenic call", "setting": "[12]", "value": "inactive; negative"}, {"measurement": "mutagenic call", "setting": "[13]", "value": "inactive; negative"}, {"measurement": "mutagenic call", "setting": "[14]", "value": "inactive; negative"}, {"measurement": "mutagenic call", "setting": "[15]", "value": "inactive; negative"}, {"measurement": "mutagenic call", "setting": "[16]", "value": "inactive; negative"}, {"measurement": "mutagenic call", "setting": "[17]", "value": "inactive; negative"}, {"measurement": "mutagenic call", "setting": "[18]", "value": "inactive; negative"}, {"measurement": "mutagenic call", "setting": "[19]", "value": "inactive; negative"}, {"measurement": "mutagenic call", "setting": "[20]", "value": "inactive; negative"}, {"measurement": "mutagenic call", "setting": "[21]", "value": "inactive; negative"}]}
{"smiles": "c1ccc2c(c1)ccc1cc3cnccc3cc12", "values": [{"measurement": "mutagenic call", "setting": "[6]", "value": "active; positive"}, {"measurement": "mutagenic call", "setting": "[2]", "value": "active; positive"}]}
{"smiles": "C=C(C=O)CCC", "values": [{"measurement": "mutagenic call", "setting": "Test System: AMES SALMONELLA TYPHIMURIUM, Strain/Indicator: TA100, Metabolic Activation: RAT LIVER S-9, AROCLOR 1254, Method: PREINCUBATION", "value": "active; positive"}, {"measurement": "mutagenic call", "setting": "[4]", "value": "active; positive"}]}
